# PubChem BioAssay (NCI)
#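 Cultured in 96-well plates, cells were exposed to test compound for 48 hours across five concentrations. GI50 marks 50% less growth. TGI denotes the concentration required for complete inhibition of growth.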
# What was measured:
# Test in all cases: NCI tumour cell line growth inhibition, 48 h
# [1] = tested on: OVCAR-5 ovarian
# [2] = tested on: MALME-3M melanoma
# [3] = tested on: NCI/ADR-RES ovarian
# [4] = tested on: OVCAR-8 ovarian
# [5] = tested on: UO-31 renal
# [6] = tested on: DU-145 prostate
# [7] = tested on: HS 578T breast
# [8] = tested on: OVCAR-3 ovarian
# [9] = tested on: NCI-H226 lung
# [10] = tested on: EKVX NSCLC
Structure (SMILES),GI50 [1] [µM],TGI [1] [µM],GI50 [2] [µM],TGI [2] [µM],GI50 [3] [µM],TGI [3] [µM],GI50 [4] [µM],TGI [4] [µM],GI50 [5] [µM],TGI [5] [µM],GI50 [6] [µM],TGI [6] [µM],GI50 [7] [µM],TGI [7] [µM],GI50 [8] [µM],TGI [8] [µM],GI50 [9] [µM],TGI [9] [µM],GI50 [10] [µM],TGI [10] [µM]
COc1cc2c(cc1OCCCCOc1cc3c(cc1OC)C(=O)N1CCC[C@H]1CN3)N=C[C@@H]1CCCN1C2=O,3.09,> 28.7,1.47,4.1,45,> 100,3.37,> 33.1,2.89,> 23.9,2.46,> 100,0.823,2.63,2.05,6.38,1.94,4.49,5.13,76.5
Cc1cc2c3ccc(C)[n+](C)c3ccc2n1C,5.42,44,3.6,12.7,> 100,> 100,1.53,29.8,3.79,> 100,5.09,51.5,3.17,24.3,3.45,23.2,12.9,49.8,0.456,13.6
COc1cc2c(cc1OC(=O)CC(C)O)C1C(OC2=O)C(OC(C)=O)C=C2CCN(C)[C@H]21 (some centres not stated),–,> 100,–,–,–,–,–,> 100,–,> 100,–,–,–,–,–,> 100,–,65.9,–,> 100
CC(CN1CCN(CCOCCO)CC1)CN1c2ccccc2Sc2ccc(Cl)cc21 (configuration not stated),2.6,7.27,1.75,3.45,4.39,18.1,4.99,18.9,3.3,16.4,5.05,17,3.44,20.1,3.62,12.7,11.5,36.8,–,–
CS(=O)(=O)Oc1cccc(/C=N/N=C(\N)NO)c1,–,> 100,–,> 100,–,–,–,> 100,–,> 100,–,–,–,–,–,> 100,–,95.6,–,> 100
Cc1ccc(-c2cc(-c3ccc(C)cc3)nc(NCCNc3ccnc4cc(Cl)ccc34)n2)cc1,1.65,3.07,1.82,3.52,–,–,1.88,3.88,1.37,2.85,1.81,3.31,–,–,1.66,3.15,1.8,4.18,1.69,3.52
N/C(=N\N=C\c1ccc(-c2ccccc2)cc1)N[N+](=O)[O-],> 100,> 100,> 100,> 100,1.46,> 86.1,5.61,> 100,6.22,> 100,5.76,> 100,1.43,> 61.3,1.67,9.5,> 28.1,> 100,–,–
CCCCNCC(=O)O[C@]1(CC)C(=O)OCc2c1cc1n(c2=O)Cc2cc3ccccc3nc2-1,–,5.95,–,30.5,–,2.03,–,–,–,1.71,–,1.32,–,> 100,–,12.8,–,2.06,–,> 100
O=C1C(=O)N(c2ccc(Cl)c(Cl)c2)C(=O)C(=O)C1c1nc2ccccc2s1,–,> 100,–,> 100,–,–,–,> 100,–,> 100,–,–,–,–,–,> 100,–,> 100,–,> 100
Brc1cccc(C2SCc3nc4ccccc4n32)c1 (configuration not stated),–,> 100,–,77.5,–,–,–,60.7,–,25.7,–,–,–,–,–,32.6,–,27,–,55.2
O=C(O)C1(P(=O)(O)O)CC1,–,–,–,> 100,–,–,–,> 100,–,> 100,–,–,–,–,–,> 100,–,–,–,> 100
c1ccc2c(C3NCCc4[nH]cnc43)cccc2c1 (configuration not stated),–,> 100,–,–,–,–,–,> 100,–,> 100,–,–,–,–,–,> 100,–,> 100,–,–
COc1cccc(C=Nc2cc(C)ccn2)c1O.COc1cccc(C=Nc2cc(C)ccn2)c1O.[Cu],20.2,44.7,16.6,31.7,19.1,68.3,20.4,64.4,–,–,19.3,41.6,19,67.6,14,40.9,9.25,27.2,25.4,71.5
COc1cc2c(c(OC)c1OC)-c1ncc3cc(OC)c(OC)c(OC)c3c1C2,22.5,> 100,–,–,12.1,51.2,6.09,34.7,20.2,> 100,26.6,> 100,29.7,65.6,19.1,46.3,–,–,23.1,66.7
COc1ccc(NC(=O)C/C(C)=N\N=C(N)N)c([N+](=O)[O-])c1,–,> 100,–,> 100,–,–,–,> 100,–,> 100,–,–,–,–,–,> 100,–,> 100,–,> 100
Clc1cc(Cl)c(OCC#CI)cc1Cl,13.7,27.2,–,–,2.79,9.66,3.39,13.1,–,–,3.01,10,16.9,50.4,1.85,3.91,19.3,40.8,14,30.2
C[Si](C)(C)OC1(C#N)C2C3CC4C2C(=O)C2C4C3C21 (configuration not stated),–,–,–,> 100,–,–,–,> 100,–,> 100,–,–,–,–,–,> 100,–,> 100,–,–
C=C1COC(/C=C(\C)CC/C=C(\C)CCl)C1 (configuration not stated),–,> 100,–,–,–,–,–,> 100,–,> 100,–,–,–,–,–,> 100,–,> 100,–,> 100
COc1ccc(C2CC(c3cc(OC)c(OC)c(OC)c3)=NN2C(C)=O)cc1OCC(=O)Nc1nc2ccc(C(F)(F)F)cc2s1 (configuration not stated),28.2,> 100,–,–,3.13,> 100,3.36,> 100,–,–,–,–,2.48,7.74,–,–,–,–,4.1,> 100
c1ccc(SC(CCCCC(Sc2ccccc2)Sc2ccccc2)Sc2ccccc2)cc1,–,–,–,–,–,–,–,> 100,–,> 100,–,–,–,–,–,> 100,–,–,–,> 100
Nc1ncnc2[nH]ncc12,0.765,> 100,–,–,0.388,12.2,0.285,16.6,0.232,0.916,0.358,18,7.32,> 100,0.863,4.38,4.04,> 100,2.6,> 79.9
CCCCCCCCCCCC(=O)OCCOCCOCCOCCOCCOCc1ccc(OC)cc1,–,> 100,–,> 100,–,–,–,> 100,–,> 100,–,–,–,–,–,> 100,–,> 100,–,> 100

Structure (SMILES),GI50 [1] [µM],TGI [1] [µM],GI50 [2] [µM],TGI [2] [µM],GI50 [3] [µM],TGI [3] [µM],GI50 [4] [µM],TGI [4] [µM],GI50 [5] [µM],TGI [5] [µM],GI50 [6] [µM],TGI [6] [µM],GI50 [7] [µM],TGI [7] [µM],GI50 [8] [µM],TGI [8] [µM],GI50 [9] [µM],TGI [9] [µM],GI50 [10] [µM],TGI [10] [µM]
O=c1cc(-c2ccccc2)[nH]c2cc(O)ccc12,–,> 100,–,> 100,–,–,–,> 100,–,49.3,–,–,–,–,–,–,–,> 100,–,> 100
O=S(=O)(c1ccccc1)C(CN1CCCCC1)S(=O)(=O)c1ccccc1,–,> 100,–,> 100,–,–,–,> 100,–,> 100,–,–,–,–,–,> 100,–,> 100,–,–
COc1ccc(C2=C(Cl)c3cc(OC)c(OC)cc3C2Cl)cc1OC (configuration not stated),–,30.2,–,40.6,–,–,–,39,–,31.3,–,–,–,–,–,28.4,–,–,–,50.5
CN(C)c1ccc(C=C2C(=O)OC(C)(C)OC2=O)cc1Br,–,> 100,–,> 100,–,–,–,> 100,–,> 100,–,–,–,–,–,> 100,–,> 100,–,> 100
Cc1cc(N(CCC#N)CCC#N)ccc1/C=C/C(=O)Nc1cccc(Cl)c1,–,> 100,–,> 100,–,–,–,> 100,–,> 100,–,–,–,–,–,> 100,–,> 100,–,> 100
COc1ccc(N=c2ssc3c(=S)ssc23)cc1,–,> 100,–,> 100,–,–,–,43.9,–,–,–,–,–,–,–,61.7,–,> 100,–,–
CSCC1CC(c2ccc(Cl)cc2)=NO1 (configuration not stated),–,> 100,–,> 100,–,–,–,> 100,–,> 100,–,–,–,–,–,> 100,–,> 100,–,> 100
CC(=O)C1=CSC2[C@H](NC(=O)Cc3ccccc3)C(=O)N2C1C(=O)OC(c1ccccc1)c1ccccc1 (some centres not stated),–,–,–,> 100,–,–,–,> 100,–,> 100,–,–,–,–,–,> 100,–,> 100,–,> 100
C=C1CC[C@@H]2[C@](C)(COC(C)=O)[C@@H](O)CC[C@@]2(C)[C@@H]1COc1ccc2ccc(=O)oc2c1,> 100,> 100,> 100,> 100,> 100,> 100,> 100,> 100,> 100,> 100,> 100,> 100,29.9,> 100,> 100,> 100,–,–,> 100,> 100
CCOC1(COP(=O)(OCc2ccccc2)OCc2ccccc2)COC(COP(=O)(OCc2ccccc2)OCc2ccccc2)(OCC)CO1 (configuration not stated),–,> 100,–,> 100,–,–,–,> 100,–,–,–,–,–,–,–,> 100,–,> 100,–,9.43
O=C1OC(CCCl)(c2ccccc2)CC1CN1CCOCC1 (configuration not stated),–,> 100,–,33.5,–,–,–,38.5,–,> 100,–,–,–,–,–,32.1,–,28,–,40.5
C/C(=N\Nc1ccc2ccccc2n1)c1ccccn1,0.0832,14.5,0.0756,2.15,0.0653,7.19,< 0.0492,12.8,< 0.0395,0.676,0.107,5.25,1.94,30.5,< 0.0192,4.24,0.134,2.12,–,–
CCOC(=O)C1=C(O)C(=O)c2ccsc2C1=O,–,> 100,–,> 100,–,–,–,> 100,–,> 100,–,–,–,–,–,> 100,–,> 100,–,> 100
COc1ccc(OC)c(NC(=O)CCC/C(CC(=O)c2ccc(O)c(OC)c2)=N\NC(=O)C[N+](C)(C)C)c1,–,> 100,–,> 100,–,–,–,> 100,–,> 100,–,–,–,–,–,> 100,–,> 100,–,> 100
CN(C)c1nc(=Nc2ccc3ccccc3c2)ss1,–,–,–,> 100,–,–,–,> 100,–,> 100,–,–,–,–,–,> 100,–,> 100,–,–
CCOC(=O)C(=O)Nc1c(CC)cccc1C(C)C,–,> 100,–,> 100,–,–,–,> 100,–,> 100,–,–,–,–,–,> 100,–,> 100,–,> 100
Cc1cc2c(C)n(Cc3ccc(Cl)cc3Cl)nc2c(C#N)c1C,–,> 56.2,–,> 81.6,–,–,–,> 100,–,> 95.3,–,–,–,–,–,> 100,–,> 56.2,–,> 100
COc1cc(C(=O)C/C(CCC(=O)Nc2ccccc2[N+](=O)[O-])=N\NC(=O)CC#N)ccc1O,–,> 100,–,> 100,–,–,–,> 100,–,> 100,–,–,–,–,–,> 100,–,> 100,–,> 100
Cn1c(/C=C(\O)c2ccc(Cl)cc2)nc2ccccc21,–,67.7,–,> 100,–,–,–,> 100,–,66.1,–,–,–,–,–,> 100,–,> 100,–,84.8
CCOc1ccc2nc(NC(=O)c3c/c(=N\NC(=O)C[N+](C)(C)C)c4ccc(O)cc4o3)sc2c1,–,7.3,–,2.56,–,–,–,7.76,–,24.7,–,–,–,–,–,0.402,–,12,–,11.9
CCOC(=O)c1nc2ccc([N+](=O)[O-])cc2c2c1CCO2,–,> 100,–,> 100,–,–,–,> 100,–,–,–,–,–,–,–,> 100,–,> 100,–,> 100
COc1cccc(NC(=O)c2sc3nc4c(cc3c2N)CN(Cc2ccccc2)CC4)c1,36.9,> 100,1.43,16.6,2.4,33.3,4.45,85.2,3.27,32.3,5.22,22.2,2.14,23,7.53,26.9,6.03,38.3,–,–
